One block for each compound: values may come before it. Calls of active or inactive are those of the source.
What was measured:
[1] = biological target: Glyceraldehyde-3-phosphate dehydrogenase (Homo sapiens, UniProt P04406)
[2] = biological target: Tyrosine-protein phosphatase non-receptor type 12 (Homo sapiens, UniProt Q05209); assay: SAR Selectivity Analysis of small molecule inhibitors of PEST using pCAP in a fluorescence assay. [Related pubchem assays (depositor defined):AID1779, AID1784, AID2135]; format: functional
Sequence of Tyrosine-protein phosphatase non-receptor type 12 (Q05209 whole entry): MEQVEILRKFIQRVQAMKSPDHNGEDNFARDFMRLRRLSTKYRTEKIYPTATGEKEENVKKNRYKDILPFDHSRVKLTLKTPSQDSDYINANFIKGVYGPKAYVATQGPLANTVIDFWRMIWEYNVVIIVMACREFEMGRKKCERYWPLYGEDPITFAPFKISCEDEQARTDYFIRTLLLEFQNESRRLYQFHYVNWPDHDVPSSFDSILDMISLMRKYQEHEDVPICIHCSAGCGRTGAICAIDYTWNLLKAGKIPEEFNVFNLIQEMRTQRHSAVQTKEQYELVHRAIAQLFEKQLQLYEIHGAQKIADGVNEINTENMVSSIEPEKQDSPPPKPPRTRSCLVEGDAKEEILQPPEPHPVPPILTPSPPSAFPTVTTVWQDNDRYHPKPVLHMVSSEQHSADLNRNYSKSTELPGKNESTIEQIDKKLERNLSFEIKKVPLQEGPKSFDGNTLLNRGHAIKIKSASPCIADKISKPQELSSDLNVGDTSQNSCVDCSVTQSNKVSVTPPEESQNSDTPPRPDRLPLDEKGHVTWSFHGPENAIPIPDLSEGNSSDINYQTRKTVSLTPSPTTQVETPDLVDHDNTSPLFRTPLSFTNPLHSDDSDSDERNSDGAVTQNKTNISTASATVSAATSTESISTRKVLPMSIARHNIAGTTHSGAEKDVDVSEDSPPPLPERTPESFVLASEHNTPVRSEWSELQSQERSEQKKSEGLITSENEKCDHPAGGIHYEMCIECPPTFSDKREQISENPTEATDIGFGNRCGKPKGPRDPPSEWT

[3] = biological target: T1, Tyrosine-protein phosphatase non-receptor type 22 (Homo sapiens, UniProt Q9Y2R2); assay: LYP (PTPN22) phosphatase inhibitor potency, SAR follow-up, biochemical, pCAP fluorogenic substrate, fluorescence, set 3 (AID 449727); format: functional
T1 sequence (Q9Y2R2 whole entry): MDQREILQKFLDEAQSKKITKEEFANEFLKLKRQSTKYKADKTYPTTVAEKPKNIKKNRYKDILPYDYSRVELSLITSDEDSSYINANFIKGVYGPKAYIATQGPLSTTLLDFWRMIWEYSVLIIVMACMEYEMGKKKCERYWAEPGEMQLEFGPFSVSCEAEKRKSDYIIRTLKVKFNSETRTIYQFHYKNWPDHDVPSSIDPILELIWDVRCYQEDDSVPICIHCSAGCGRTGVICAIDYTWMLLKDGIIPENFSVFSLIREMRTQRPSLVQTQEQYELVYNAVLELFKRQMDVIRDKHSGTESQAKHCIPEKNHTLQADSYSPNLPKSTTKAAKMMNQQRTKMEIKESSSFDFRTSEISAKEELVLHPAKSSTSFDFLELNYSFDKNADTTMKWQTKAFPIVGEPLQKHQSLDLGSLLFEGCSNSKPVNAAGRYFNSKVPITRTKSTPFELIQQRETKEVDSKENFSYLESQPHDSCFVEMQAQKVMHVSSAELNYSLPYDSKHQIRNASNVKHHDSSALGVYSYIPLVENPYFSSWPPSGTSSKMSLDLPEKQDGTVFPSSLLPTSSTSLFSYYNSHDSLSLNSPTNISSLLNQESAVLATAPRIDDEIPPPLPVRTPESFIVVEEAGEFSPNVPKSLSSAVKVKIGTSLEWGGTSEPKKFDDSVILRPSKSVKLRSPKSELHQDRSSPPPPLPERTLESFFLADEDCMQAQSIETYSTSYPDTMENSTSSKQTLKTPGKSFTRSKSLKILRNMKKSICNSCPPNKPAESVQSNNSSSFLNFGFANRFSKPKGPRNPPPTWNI

[4] = biological target: T1, Tyrosine-protein phosphatase non-receptor type 22; assay: SAR LYP1 Fluorescent Assay using OMFP substrate for In Vitro dose response studies - Set 3. [Related pubchem assays (depositor defined):AID1779, AID1784, AID2140, AID2686]; format: functional
Insulin-degrading enzyme [5] = biological target: T2, Insulin-degrading enzyme (Homo sapiens, UniProt P14735); assay: activators of endogenous IDE in HEK cells, dose response, cell-based, fluorescence polarization (AID 588439); format: functional
T2 sequence (P14735 whole entry): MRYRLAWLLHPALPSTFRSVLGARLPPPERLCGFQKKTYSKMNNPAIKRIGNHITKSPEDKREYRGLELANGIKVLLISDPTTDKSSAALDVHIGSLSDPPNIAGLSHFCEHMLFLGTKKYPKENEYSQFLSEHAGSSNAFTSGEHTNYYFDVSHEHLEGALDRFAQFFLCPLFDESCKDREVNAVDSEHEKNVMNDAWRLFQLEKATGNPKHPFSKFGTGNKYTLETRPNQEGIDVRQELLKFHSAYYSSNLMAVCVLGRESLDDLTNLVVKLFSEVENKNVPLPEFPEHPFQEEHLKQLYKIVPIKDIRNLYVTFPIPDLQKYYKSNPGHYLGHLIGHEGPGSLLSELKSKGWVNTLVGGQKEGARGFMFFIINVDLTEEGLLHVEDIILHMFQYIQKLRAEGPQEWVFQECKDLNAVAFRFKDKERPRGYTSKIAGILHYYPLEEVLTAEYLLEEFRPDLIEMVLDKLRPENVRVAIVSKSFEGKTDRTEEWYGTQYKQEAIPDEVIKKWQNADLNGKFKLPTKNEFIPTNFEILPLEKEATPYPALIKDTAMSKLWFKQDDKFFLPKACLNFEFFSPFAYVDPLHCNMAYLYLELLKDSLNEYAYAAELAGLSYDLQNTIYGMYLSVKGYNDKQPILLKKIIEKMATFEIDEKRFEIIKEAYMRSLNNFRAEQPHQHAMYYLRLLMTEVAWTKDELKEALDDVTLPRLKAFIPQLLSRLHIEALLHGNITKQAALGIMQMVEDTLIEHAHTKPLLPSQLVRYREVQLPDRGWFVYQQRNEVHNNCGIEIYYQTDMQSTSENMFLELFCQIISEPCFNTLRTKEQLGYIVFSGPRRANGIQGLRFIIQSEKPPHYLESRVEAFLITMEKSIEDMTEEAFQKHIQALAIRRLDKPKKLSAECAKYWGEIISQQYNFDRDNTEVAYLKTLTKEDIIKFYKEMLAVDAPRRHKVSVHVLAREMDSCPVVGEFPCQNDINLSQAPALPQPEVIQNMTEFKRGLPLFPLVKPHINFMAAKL

HEK293 [6] = assay: HEK cell cytotoxicity by LDH release, dose response, cytotoxicity control for IDE activator project, fluorescence, HEK cells (AID 588440); format: functional, cell-based; details: Homo sapiens;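 note: cytotoxicity by LDH release measuring loss of membrane integrity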
[7] = biological target: Female germline-specific tumor suppressor gld-1 (Caenorhabditis elegans, UniProt Q17339); assay: inhibitors of GLD-1 binding to TGE RNA, dose response, biochemical, fluorescence polarization, C. elegans (AID 2802);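 note: fluorescence polarization of labeled TGE RNA bound by purified gld-1 protein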
Sequence of Female germline-specific tumor suppressor gld-1 (Q17339 whole entry): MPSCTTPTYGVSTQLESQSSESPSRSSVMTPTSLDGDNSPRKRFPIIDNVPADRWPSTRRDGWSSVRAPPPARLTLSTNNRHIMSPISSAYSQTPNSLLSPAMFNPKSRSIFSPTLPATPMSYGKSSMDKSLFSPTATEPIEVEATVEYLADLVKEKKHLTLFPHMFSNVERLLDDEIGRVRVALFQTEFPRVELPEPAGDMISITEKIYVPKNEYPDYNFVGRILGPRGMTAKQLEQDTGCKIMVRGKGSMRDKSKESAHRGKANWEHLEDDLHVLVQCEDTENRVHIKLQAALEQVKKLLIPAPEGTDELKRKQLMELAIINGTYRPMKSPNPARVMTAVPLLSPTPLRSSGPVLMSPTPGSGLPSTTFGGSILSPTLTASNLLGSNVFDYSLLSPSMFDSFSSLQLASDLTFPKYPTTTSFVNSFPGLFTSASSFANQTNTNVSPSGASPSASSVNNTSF

Insulin-degrading enzyme [8] = biological target: T2, Insulin-degrading enzyme; assay: activators of recombinant IDE enzyme, dose response, counter-screen for IDE activator project, biochemical, fluorescence polarization (AID 588681)
HEK293 [9] = assay: optical interference in Abeta FP readout, dose response, artefact control for IDE activator project, biochemical, fluorescence polarization (AID 588442); format: functional, cell-based; details: Homo sapiens
Protein Rev = Protein Rev (Human immunodeficiency virus type 1 group M subtype B (isolate HXB2)(HIV-1), UniProt P04618); assay: inhibitors of Rev binding to RRE RNA, dose response, biochemical, fluorescence polarization, HIV-1 (AID 434976); design: species or system Human immunodeficiency virus 1
Sequence of Protein Rev (P04618 whole entry): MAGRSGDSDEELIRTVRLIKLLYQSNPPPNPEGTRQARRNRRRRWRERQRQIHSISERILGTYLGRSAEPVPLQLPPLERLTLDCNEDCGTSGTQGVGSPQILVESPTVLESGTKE

[10] = cytotoxicity in HEK-293T cells, dose response, cytotoxicity control for BCR NF-kB inhibitor project, luminescence, B-cell screen hits (AID 489021); format: functional, cell-based;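 note: HEK-293T cells carrying an NF-kB luciferase reporter; cells exposed to compound for about 14 hours before viability readout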
[11] = growth suppression of PTEN-null colon cells, dose response, cell-based, HCT116 PTEN knockout (AID 1047); format: functional;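 note: HCT116 colon tumor cells with PTEN knocked out; cells exposed to compound for 60 hours before readout; potency for loss of cell viability measured by luminescence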
[12] = biological target: Neurotensin receptor type 1 (Homo sapiens, UniProt P30989); format: functional;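 note: Image-based confirmatory dose-response assay measuring agonist activity at NTR1; NTR1-expressing U2OS osteosarcoma cells imaged for beta-arrestin GFP spot formation; agonist potency where compounds increase beta-arrestin recruitment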
Sequence of Neurotensin receptor type 1 (P30989 whole entry): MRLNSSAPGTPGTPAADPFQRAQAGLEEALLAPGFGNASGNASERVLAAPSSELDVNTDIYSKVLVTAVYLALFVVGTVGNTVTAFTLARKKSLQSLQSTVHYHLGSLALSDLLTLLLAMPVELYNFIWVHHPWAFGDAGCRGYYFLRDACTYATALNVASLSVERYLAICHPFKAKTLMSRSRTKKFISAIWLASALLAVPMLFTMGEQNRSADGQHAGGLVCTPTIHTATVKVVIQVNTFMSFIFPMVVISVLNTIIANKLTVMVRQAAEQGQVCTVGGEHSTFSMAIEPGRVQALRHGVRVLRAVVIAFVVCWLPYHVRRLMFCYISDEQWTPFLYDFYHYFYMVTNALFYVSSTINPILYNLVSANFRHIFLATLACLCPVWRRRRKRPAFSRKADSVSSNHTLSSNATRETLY

[13] = growth suppression of beta-catenin-knockout colon cells, dose response, cell-based, HCT116, human colon tumor (AID 1045); format: functional;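 note: HCT116 colon tumor cells with beta catenin knocked out; cells exposed to compound for 60 hours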
X-box-binding protein 1 = X-box-binding protein 1 (Homo sapiens, UniProt P17861); format: functional, Cricetulus griseus;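 note: confirmatory dose-response counter-screen serving a CHOP assay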
Sequence of X-box-binding protein 1 (P17861 whole entry): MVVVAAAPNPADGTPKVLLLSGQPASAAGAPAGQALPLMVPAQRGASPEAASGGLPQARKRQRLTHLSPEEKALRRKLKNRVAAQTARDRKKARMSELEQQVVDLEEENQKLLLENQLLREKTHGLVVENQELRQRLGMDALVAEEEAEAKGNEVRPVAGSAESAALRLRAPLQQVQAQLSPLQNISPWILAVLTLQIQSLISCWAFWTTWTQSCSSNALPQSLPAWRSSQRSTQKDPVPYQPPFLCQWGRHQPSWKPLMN

[14] = HEp-2 cell cytotoxicity, dose response, cytotoxicity control for RSV inhibitor project, HTS (AID 2410); format: functional; details: human respiratory syncytial virus
[15] = biological target: T3, Trace amine-associated receptor 1 (Homo sapiens, UniProt Q96RJ0); assay: Counterscreen for agonists of the human trace amine associated receptor 1 (hTAAR1): Fluorescence-based cell-based high throughput dose response assay to identify hTAAR1 agonist that also desensitize TAAR1 receptor response.; format: functional
T3 sequence (Q96RJ0 whole entry): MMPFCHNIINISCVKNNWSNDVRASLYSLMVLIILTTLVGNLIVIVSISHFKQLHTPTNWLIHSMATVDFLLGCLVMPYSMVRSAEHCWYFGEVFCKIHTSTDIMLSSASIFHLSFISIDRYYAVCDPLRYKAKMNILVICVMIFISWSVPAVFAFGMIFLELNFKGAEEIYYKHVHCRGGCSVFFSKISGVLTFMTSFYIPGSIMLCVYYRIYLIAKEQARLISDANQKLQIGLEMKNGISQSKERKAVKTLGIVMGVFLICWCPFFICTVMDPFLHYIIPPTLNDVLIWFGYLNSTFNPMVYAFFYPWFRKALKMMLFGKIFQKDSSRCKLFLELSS

Trypsin = Trypsin (Sus scrofa, UniProt P00761); assay: porcine trypsin inhibitors, dose response, selectivity assay for Rce1 protease inhibitor project, biochemical, quenched peptide fluorescence, cherry-pick (AID 488789)
Sequence of Trypsin (P00761 whole entry): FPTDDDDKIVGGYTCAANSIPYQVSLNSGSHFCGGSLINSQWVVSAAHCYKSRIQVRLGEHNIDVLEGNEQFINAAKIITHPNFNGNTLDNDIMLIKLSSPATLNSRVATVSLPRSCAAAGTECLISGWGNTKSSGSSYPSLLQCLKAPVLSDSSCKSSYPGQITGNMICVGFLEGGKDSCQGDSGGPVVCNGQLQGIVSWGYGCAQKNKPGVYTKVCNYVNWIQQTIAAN

cells [16] = format: functional, cell-based
[17] = biological target: T3, Trace amine-associated receptor 1; assay: Fluorescence-based cell-based high throughput dose response assay to identify agonists of the human trace amine associated receptor 1 (TAAR1).; format: functional
cells [18] = format: functional, cell-based; remark: listed apart in the source
[19] = biological target: T4, Neuropeptides B/W receptor type 1 (Homo sapiens, UniProt P48145); assay: GPR7 antagonist potency, late-stage follow-up, cell-based, fluorescence, dose response (AID 463251); format: functional
T4 sequence (P48145 whole entry): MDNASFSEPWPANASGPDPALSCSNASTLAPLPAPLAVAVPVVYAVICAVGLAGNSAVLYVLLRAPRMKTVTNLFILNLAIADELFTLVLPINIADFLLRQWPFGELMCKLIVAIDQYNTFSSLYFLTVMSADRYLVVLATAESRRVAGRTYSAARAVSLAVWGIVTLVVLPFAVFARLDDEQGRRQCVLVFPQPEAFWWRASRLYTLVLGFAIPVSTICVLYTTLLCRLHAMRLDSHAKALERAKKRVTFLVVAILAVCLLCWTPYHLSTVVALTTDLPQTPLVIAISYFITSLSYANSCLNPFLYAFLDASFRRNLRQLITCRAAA

[20] = biological target: Melanin-concentrating hormone receptor 1 (Homo sapiens, UniProt Q99705); assay: Late-stage fluorescence-based counterscreen for antagonists of the G-protein coupled receptor 7 (GPR7): cell-based dose response assay to identify antagonists of the melanin-concentrating hormone receptor 1 (MCHR1). [Related pubchem assays (depositor defined):AID1861, AID1880, AID1952, AID2148, AID2251, AID2257, AID485339]; format: functional;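 note: stimulated with 30 nM MCH peptide agonist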
Sequence of Melanin-concentrating hormone receptor 1 (Q99705 whole entry): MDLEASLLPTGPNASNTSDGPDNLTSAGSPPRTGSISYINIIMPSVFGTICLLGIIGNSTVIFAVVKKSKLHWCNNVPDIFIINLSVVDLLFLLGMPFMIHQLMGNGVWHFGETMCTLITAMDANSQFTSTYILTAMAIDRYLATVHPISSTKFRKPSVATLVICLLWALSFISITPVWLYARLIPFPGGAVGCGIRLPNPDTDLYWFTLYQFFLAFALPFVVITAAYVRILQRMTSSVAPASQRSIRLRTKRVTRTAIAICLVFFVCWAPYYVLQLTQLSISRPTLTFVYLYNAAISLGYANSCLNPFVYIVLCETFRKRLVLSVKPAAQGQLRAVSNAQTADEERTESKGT

Wee1-like protein kinase = Wee1-like protein kinase (Homo sapiens, UniProt P30291); assay: G2/M cell cycle arrest in HeLa, late-stage follow-up, mechanism study for Wee1 degradation inhibitor project, FACS, panel member Wee1 Degradation (AID 2088)
Sequence of Wee1-like protein kinase (P30291 whole entry): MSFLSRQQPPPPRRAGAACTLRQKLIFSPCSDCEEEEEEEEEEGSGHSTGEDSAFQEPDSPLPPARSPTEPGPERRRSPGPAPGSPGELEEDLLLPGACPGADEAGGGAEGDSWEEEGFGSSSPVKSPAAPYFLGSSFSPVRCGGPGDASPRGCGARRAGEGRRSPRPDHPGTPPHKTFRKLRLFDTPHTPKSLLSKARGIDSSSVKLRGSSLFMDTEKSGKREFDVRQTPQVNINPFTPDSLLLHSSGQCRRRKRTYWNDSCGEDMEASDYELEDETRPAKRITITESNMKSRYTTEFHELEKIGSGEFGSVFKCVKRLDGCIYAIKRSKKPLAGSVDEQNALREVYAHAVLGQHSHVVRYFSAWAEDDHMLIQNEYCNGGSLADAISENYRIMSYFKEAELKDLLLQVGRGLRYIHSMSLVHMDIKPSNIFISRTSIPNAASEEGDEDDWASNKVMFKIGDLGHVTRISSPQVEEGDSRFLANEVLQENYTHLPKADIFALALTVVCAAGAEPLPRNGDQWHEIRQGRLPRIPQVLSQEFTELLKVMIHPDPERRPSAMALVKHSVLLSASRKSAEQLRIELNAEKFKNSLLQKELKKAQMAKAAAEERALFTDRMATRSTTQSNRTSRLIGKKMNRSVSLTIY

[21] = biological target: G2/mitotic-specific cyclin-B1 (Homo sapiens, UniProt P14635); assay: G2/M cell cycle arrest in HeLa, late-stage follow-up, mechanism study for Wee1 degradation inhibitor project, FACS, panel member Cyclin B Degradation (AID 2088)
Sequence of G2/mitotic-specific cyclin-B1 (P14635 whole entry): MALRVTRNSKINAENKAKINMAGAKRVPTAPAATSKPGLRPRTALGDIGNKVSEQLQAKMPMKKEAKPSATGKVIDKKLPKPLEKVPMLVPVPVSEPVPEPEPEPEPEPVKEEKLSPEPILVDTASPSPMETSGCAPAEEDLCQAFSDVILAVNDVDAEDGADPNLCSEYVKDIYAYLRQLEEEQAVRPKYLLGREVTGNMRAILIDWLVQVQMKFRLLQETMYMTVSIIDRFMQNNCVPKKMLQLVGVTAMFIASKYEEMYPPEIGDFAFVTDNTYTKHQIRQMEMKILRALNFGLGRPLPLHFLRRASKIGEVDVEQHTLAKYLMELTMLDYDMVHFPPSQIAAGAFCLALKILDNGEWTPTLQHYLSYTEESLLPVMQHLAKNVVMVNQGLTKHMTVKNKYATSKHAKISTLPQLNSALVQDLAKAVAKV

[22] = biological target: Signal transducer and activator of transcription 3 (Homo sapiens, UniProt P40763); assay: STAT3 activators, late-stage profile, late-stage follow-up, cell-based, STAT1 reporter, BCL3 qPCR, cytotoxicity, panel member STAT3 Activation (AID 2049)
Sequence of Signal transducer and activator of transcription 3 (P40763 whole entry): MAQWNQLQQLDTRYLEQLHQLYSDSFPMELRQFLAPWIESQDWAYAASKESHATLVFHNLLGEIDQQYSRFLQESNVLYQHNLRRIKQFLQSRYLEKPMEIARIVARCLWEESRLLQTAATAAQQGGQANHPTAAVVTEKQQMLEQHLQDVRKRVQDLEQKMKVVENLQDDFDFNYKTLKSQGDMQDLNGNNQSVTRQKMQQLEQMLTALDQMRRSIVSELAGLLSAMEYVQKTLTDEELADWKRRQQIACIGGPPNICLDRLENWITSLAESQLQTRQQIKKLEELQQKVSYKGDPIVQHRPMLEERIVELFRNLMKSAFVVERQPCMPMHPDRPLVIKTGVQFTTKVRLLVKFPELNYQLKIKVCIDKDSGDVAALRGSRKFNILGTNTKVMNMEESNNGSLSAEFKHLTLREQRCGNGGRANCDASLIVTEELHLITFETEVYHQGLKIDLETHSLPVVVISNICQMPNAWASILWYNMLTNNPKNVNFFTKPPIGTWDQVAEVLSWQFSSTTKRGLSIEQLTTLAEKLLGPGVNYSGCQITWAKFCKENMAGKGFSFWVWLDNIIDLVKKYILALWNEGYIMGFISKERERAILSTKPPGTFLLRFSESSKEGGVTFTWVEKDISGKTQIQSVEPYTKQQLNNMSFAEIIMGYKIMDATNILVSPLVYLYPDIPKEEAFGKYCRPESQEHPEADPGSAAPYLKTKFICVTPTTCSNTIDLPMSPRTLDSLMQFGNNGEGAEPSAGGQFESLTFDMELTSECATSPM

Sequence of Glyceraldehyde-3-phosphate dehydrogenase (P04406 whole entry): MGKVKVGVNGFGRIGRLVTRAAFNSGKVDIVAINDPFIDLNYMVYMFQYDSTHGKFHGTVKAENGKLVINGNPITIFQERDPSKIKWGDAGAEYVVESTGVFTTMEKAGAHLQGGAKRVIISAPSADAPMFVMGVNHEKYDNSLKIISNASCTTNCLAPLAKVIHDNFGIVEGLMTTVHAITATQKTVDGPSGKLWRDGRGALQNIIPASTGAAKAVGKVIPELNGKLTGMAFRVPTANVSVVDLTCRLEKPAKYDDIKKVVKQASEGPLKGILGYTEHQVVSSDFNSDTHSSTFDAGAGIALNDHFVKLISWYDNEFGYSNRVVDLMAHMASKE

IC50 [1]: > 100 µM (not active) | IC50 [2]: > 100 µM (inactive) | IC50 [3]: > 100 µM (inactive) | IC50 [4]: > 100 µM (inactive)
SMILES: COc1ccc(/C=C2\SC(=S)N(C(CC(=O)O)C(=O)O)C2=O)cc1 (stereo unspecified)

SMILES: O=C(O)c1ccccc1N=Nc1ccc(O)cc1
EC50 (Insulin-degrading enzyme [5]): 22.3 µM (inactive) | IC50 (HEK293 [6]): > 89.2 µM (inactive) | IC50 [7]: 8.4 µM (active) | EC50 (Insulin-degrading enzyme [8]): 26.9 µM (inactive) | EC50 (HEK293 [9]): 50.3 µM (inactive) | IC50 (Protein Rev): 22 µM (not active)

SMILES: CCN(CC)CCOC(=O)c1ccc(NC(=O)COc2cc(=O)n(CC)c3ccccc23)cc1
IC50 [10]: > 80 µM (inactive)

SMILES: Cc1cc2c3c(c1)C(C)(c1ccccc1)CC(C)(C)N3C(=O)C21C(C#N)=C(N)OC2=C1C(=O)CC(C)(C)C2 (stereo unspecified)
EC50 [11]: 19.4 µM (active) | EC50 [12]: 22 µM (inactive) | EC50 [13]: 20.4 µM (active) | Absolute IC50 (XBP1) (X-box-binding protein 1): 10 µM

SMILES: O=C(NCC1CC1)c1ccc(Nc2nc3cc(Br)ccc3[nH]2)cc1
CC50 [14]: 7.81 µM (active) | IC50 [15]: 2.09 µM (active) | AC50 (Trypsin): 9.83 µM (active) | IC50 (cells [16]): 14.5 µM (inactive) | EC50 [17]: 14.6 µM (inactive) | EC50 (cells [18]): > 29.9 µM (inactive)

IC50 [19]: 9 µM (active) | IC50 [20]: 5.8 µM (active)
SMILES: Cc1ccc(CN2CCCCC2C(=O)N2CCN(c3ccc([N+](=O)[O-])cc3)CC2)cc1 (stereo unspecified)

EC50 (Wee1-like protein kinase): > 49.7 µM (inactive) | EC50 [21]: > 49.7 µM (inactive)
SMILES: COC(=O)c1ccccc1NC(=O)CCCOc1cc(=O)n(C)c2ccccc12

SMILES: COc1cccc(NC(=O)c2cc(C3CC3)on2)c1
EC50 [22]: > 5.57 µM (inactive)

From ChEMBL document CHEMBL1201862, “PubChem BioAssay data set” (2004)
